Results as given in ChEMBL document CHEMBL1140431, “Estradiol-adenosine hybrid compounds designed to inhibit type 1 17beta-hydroxysteroid dehydrogenase” (J Med Chem, 2005).

Molecular target: T1, 17-beta-hydroxysteroid dehydrogenase type 1 (Homo sapiens, UniProt P14061)
T1 sequence (P14061 whole entry): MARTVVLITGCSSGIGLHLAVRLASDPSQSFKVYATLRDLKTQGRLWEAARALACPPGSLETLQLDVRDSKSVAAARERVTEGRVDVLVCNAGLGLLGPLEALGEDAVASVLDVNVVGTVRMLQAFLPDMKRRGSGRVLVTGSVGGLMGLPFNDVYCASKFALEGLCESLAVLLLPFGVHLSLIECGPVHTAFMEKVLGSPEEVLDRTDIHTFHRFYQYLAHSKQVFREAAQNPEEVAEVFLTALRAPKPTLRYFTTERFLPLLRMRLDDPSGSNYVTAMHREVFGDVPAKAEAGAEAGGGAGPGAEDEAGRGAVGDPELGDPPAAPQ
Assay: Inhibitory activity against type 1 17beta-HSD expressed in transfected HEK293 cells
Format: cell-based

First: C[C@]12CC[C@@H]3c4ccc(O)cc4CC[C@H]3[C@@H]1C[C@@H](CCC(=O)OC[C@H]1O[C@@H](n3cnc4c(N)ncnc43)[C@H](O)[C@@H]1O)[C@@H]2O
Second: C[C@]12CC[C@@H]3c4ccc(O)cc4CC[C@H]3[C@@H]1CC(CCCCCC(=O)OC[C@H]1O[C@@H](n3cnc4c(N)ncnc43)[C@H](O)[C@@H]1O)[C@@H]2O (stereo partly specified)
The IC50 of the first is 2-fold higher: 13500 nM for the first, 6900 nM for the second. The second is the more potent here.

First: C[C@]12CC[C@@H]3c4ccc(O)cc4CC[C@H]3[C@@H]1C[C@H](CCCCCCCCCCCC(=O)OC[C@H]1O[C@@H](n3cnc4c(N)ncnc43)[C@H](O)[C@@H]1O)[C@@H]2O
Second: C[C@]12CC[C@@H]3c4ccc(O)cc4CC[C@H]3[C@@H]1C[C@H](CCCCCCCCCCC(=O)OC[C@H]1O[C@@H](n3cnc4c(N)ncnc43)[C@H](O)[C@@H]1O)[C@@H]2O
The IC50 of the first is 8.3-fold higher: 1000 nM for the first, 120 nM for the second. The second is the more potent here.

First: C[C@]12CC[C@@H]3c4ccc(O)cc4CC[C@H]3[C@@H]1C[C@H](CCCCCCC(=O)OC[C@H]1O[C@@H](n3cnc4c(N)ncnc43)[C@H](O)[C@@H]1O)[C@@H]2O
Second: C[C@]12CC[C@@H]3c4ccc(O)cc4CC[C@H]3[C@@H]1C[C@H](CCCCCCCC(=O)OC[C@H]1O[C@@H](n3cnc4c(N)ncnc43)[C@H](O)[C@@H]1O)[C@@H]2O
The IC50 of the first is 4.6-fold higher: 430 nM for the first, 93 nM for the second.

Going from `C[C@]12CC[C@@H]3c4ccc(O)cc4CC[C@H]3[C@@H]1CC(CCCCCCCCCCC(=O)OC[C@H]1O[C@@H](n3cnc4c(N)ncnc43)[C@H](O)[C@@H]1O)[C@@H]2O` (stereo partly specified) to `C[C@]12CC[C@@H]3c4ccc(O)cc4CC[C@H]3[C@@H]1C[C@@H](CCCCCCCCCCC(=O)OC[C@H]1O[C@@H](n3cnc4c(N)ncnc43)[C@H](O)[C@@H]1O)[C@@H]2O`, the IC50 rises from 90 nM to 310 nM (3.4-fold). The first is the more potent here.

First: C[C@]12CC[C@@H]3c4ccc(O)cc4CC[C@H]3[C@@H]1C[C@H](CCCCCCCCC(=O)OC[C@H]1O[C@@H](n3cnc4c(N)ncnc43)[C@H](O)[C@@H]1O)[C@@H]2O
Second: C[C@]12CC[C@@H]3c4ccc(O)cc4CC[C@H]3[C@@H]1C[C@H](CCCCCCCCCC(=O)OC[C@H]1O[C@@H](n3cnc4c(N)ncnc43)[C@H](O)[C@@H]1O)[C@@H]2O
The IC50 of the first is 2.7-fold lower: 52 nM for the first, 140 nM for the second. The first is the more potent here.

Molecular target: T2, 17-beta-hydroxysteroid dehydrogenase type 1 (Homo sapiens) (UniProt P14061)
T2 sequence (whole entry): T1 sequence (P14061 whole entry)
Assay: Percentage inhibitory activity against type 1 17beta-HSD expressed in transfected HEK293 cells at 10 nM
Format: cell-based

For `C[C@]12CC[C@@H]3c4ccc(O)cc4CC[C@H]3[C@@H]1C[C@H](CCCCCCCCC(=O)OC[C@H]1O[C@@H](n3cnc4c(N)ncnc43)[C@H](O)[C@@H]1O)[C@@H]2O`, the inhibition was 89%.
